This passage reports IC50 results from patent US20090163586A1, “Bis-(Sulfonylamino) Derivatives in Therapy 205” (AstraZeneca AB, priority 2007, published 2009).

This assay deals with T1, human mPGES-1 (Homo sapiens, UniProt O14684).
T1 sequence (O14684 1-152): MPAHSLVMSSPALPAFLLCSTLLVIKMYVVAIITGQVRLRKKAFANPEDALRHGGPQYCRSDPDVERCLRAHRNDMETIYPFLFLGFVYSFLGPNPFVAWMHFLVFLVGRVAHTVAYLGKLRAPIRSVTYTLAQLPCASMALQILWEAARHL
The assay is described as follows: Microsomal prostaglandin E synthase biochemical assay. Conditions: microsome preparation containing human mPGES-1; PGH2 10.8 μM, GSH 2.5 mM, pH 6.8; PGE2 by HTRF; average of at least n=2. Put shortly:
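Human mPGES-1 microsomes at 2 μg/mL were pre-incubated 15 min with compound (60 μM to 0.002 μM) in 50 mM potassium phosphate pH 6.8 with 2.5 mM GSH. The reaction was started with 10.8 μM PGH2 and stopped after 1 minute with acidic ferric chloride/citrate. PGE2 was quantified by HTRF; IC50 is the mean of at least 2 runs.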

Regarding `Cc1ccc(S(N)(=O)=O)c(NS(=O)(=O)CCc2ccc(Cl)c(Cl)c2)c1` [Example 200], half-maximal inhibition (IC50) required 1400 nM. The value for `COc1cc(Cl)ccc1CCS(=O)(=O)Nc1cc(C)ccc1S(N)(=O)=O` [Example 201, 2-(2-(4-Chloro-2-methoxyphenyl)ethylsulfonamido)-4-methylbenzenesulfonamide] was 720 nM. The figure for `NS(=O)(=O)c1cc(Cl)ccc1NS(=O)(=O)CCc1ccc(Cl)c(Cl)c1` [Example 202, 5-Chloro-2-(2-(3,4-dichlorophenyl)ethylsulfonamido)benzenesulfonamide] is 2900 nM; for `COc1ncc(-c2cccc(S(=O)(=O)Nc3ccncc3S(N)(=O)=O)c2)cc1Cl` [Example 203, 4-(3-(5-Chloro-6-methoxypyridin-3-yl)phenylsulfonamido)pyridine-3-sulfonamide] it is 2100 nM; for `NS(=O)(=O)c1cnccc1NS(=O)(=O)CCc1ccc(-c2cc3ccccc3o2)cc1` [Example 204, 4-(2-(4-(Benzofuran-2-yl)phenyl)ethylsulfonamido)pyridine-3-sulfonamide] it is 620 nM. `COc1cc(Cl)ccc1CCS(=O)(=O)Nc1ccc(C)cc1S(N)(=O)=O` [Example 205, 2-(2-(4-Chloro-2-methoxyphenyl)ethylsulfonamido)-5-methylbenzenesulfonamide] registered an IC50 of 560 nM. This IC50 and that of the compound before are within 1.5-fold of each other.

Turning to `COc1cc(Cl)ccc1CCS(=O)(=O)Nc1ccncc1S(N)(=O)=O` [Example 206, 4-(2-(4-Chloro-2-methoxyphenyl)ethylsulfonamido)pyridine-3-sulfonamide], the IC50 was 9100 nM. The figure for `NS(=O)(=O)c1ccccc1NS(=O)(=O)/C=C/c1ccc(C2=CCCC2)cc1` [Example 207, (E)-2-(2-(4-Cyclopentenylphenyl)vinylsulfonamido)benzenesulfonamide] is 97 nM; for `CC(C)(C)C#Cc1ccc(/C=C/S(=O)(=O)Nc2ccccc2S(N)(=O)=O)cc1` [Example 208, (E)-2-(2-(4-(3,3-Dimethylbut-1-ynyl)phenyl)vinylsulfonamido)benzenesulfonamide] it is 55 nM. The figure for `CC(C)(O)C#Cc1ccc(/C=C/S(=O)(=O)Nc2ccccc2S(N)(=O)=O)cc1` [Example 209, (E)-2-(2-(4-(3-Hydroxy-3-methylbut-1-ynyl)phenyl)vinylsulfonamido)benzenesulfonamide] is 220 nM. In the case of `Cc1ccc(NS(=O)(=O)CCc2ccc(C#CC(C)(C)C)cc2)c(S(N)(=O)=O)c1` [Example 210, 2-{2-[4-(3,3-Dimethyl-but-1-ynyl)-phenyl]-ethanesulfonylamino}-5-methyl-benzenesulfonamide], the IC50 was determined as 360 nM. `CC(C)(C)C#Cc1ccc(CCS(=O)(=O)Nc2ccc(CO)cc2S(N)(=O)=O)cc1` [Example 211, 2-{2-[4-(3,3-Dimethyl-but-1-ynyl)-phenyl]-ethanesulfonylamino}-5-hydroxymethyl-benzenesulfonamide] registered an IC50 of 75 nM. The compound `NS(=O)(=O)c1cc(CO)ccc1NS(=O)(=O)CCc1ccc(C#CC2CCCC2)cc1` [Example 212, 2-[2-(4-Cyclopentylethynyl-phenyl)-ethanesulfonylamino]-5-hydroxymethyl-benzenesulfonamide] registered an IC50 of 41 nM. The figure for `COc1cc(Cl)ccc1CCS(=O)(=O)Nc1ccc(CO)cc1S(N)(=O)=O` [Example 213, 2-[2-(4-Chloro-2-methoxy-phenyl)-ethanesulfonylamino]-5-hydroxymethyl-benzenesulfonamide] is 330 nM; for `CC(C)(C)C#Cc1ccc(CCS(=O)(=O)Nc2ccsc2S(N)(=O)=O)cc1` [Example 214, 3-{2-[4-(3,3-Dimethyl-but-1-ynyl)-phenyl]-ethanesulfonylamino}-thiophene-2-sulfonic acid amide] it is 1400 nM. `COc1ncc(-c2cccc(S(=O)(=O)Nc3ccsc3S(N)(=O)=O)c2)cc1Cl` [Example 215, 3-[3-(5-Chloro-6-methoxy-pyridin-3-yl)-benzenesulfonylamino]-thiophene-2-sulfonic acid amide] showed an IC50 of 740 nM. Take `NS(=O)(=O)c1ccccc1NS(=O)(=O)/C=C/c1ccc(OC(F)(F)C(F)F)cc1` [Example 216, (E)-2-(2-(4-(1,1,2,2-tetrafluoroethoxy)phenyl)vinylsulfonamido)benzenesulfonamide]: the IC50 stood at 130 nM. Compared with the last compound, the IC50 is about 5.7-fold lower. As to `NS(=O)(=O)c1ccccc1NS(=O)(=O)/C=C/c1ccccc1OC(F)F` [Example 217, (E)-2-(2-(2-(difluoromethoxy)phenyl)vinylsulfonamido)benzenesulfonamide], the IC50 is 110 nM.

In the case of `NS(=O)(=O)c1ccccc1NS(=O)(=O)/C=C/c1ccc(-c2ccc(C(F)(F)F)cc2)cc1` [Example 218, (E)-2-(2-(4′-(trifluoromethyl)biphenyl-4-yl)vinylsulfonamido)benzenesulfonamide], the IC50 amounted to 180 nM. The value for `CC(C)Oc1ccccc1/C=C/S(=O)(=O)Nc1ccccc1S(N)(=O)=O` [Example 219, (E)-2-(2-(2-isopropoxyphenyl)vinylsulfonamido)benzenesulfonamide] was 950 nM. The figure for `CSc1ccccc1/C=C/S(=O)(=O)Nc1ccccc1S(N)(=O)=O` [Example 220, (E)-2-(2-(2-(methylthio)phenyl)vinylsulfonamido)benzenesulfonamide] is 270 nM; for `NS(=O)(=O)c1ccccc1NS(=O)(=O)/C=C/c1ccccc1OC(F)(F)F` [Example 221, (E)-2-(2-(2-(trifluoromethoxy)phenyl)vinylsulfonamido)benzenesulfonamide] it is 420 nM. The value for `CCOc1ccccc1/C=C/S(=O)(=O)Nc1ccccc1S(N)(=O)=O` [Example 222, 2-[2-(2-ethoxy-phenyl)-ethenesulfonylamino]-benzenesulfonamide] was 380 nM; that for `NS(=O)(=O)c1ccccc1NS(=O)(=O)CCc1ccc(OC(F)(F)C(F)F)cc1` [Example 223, 2-(2-(4-(1,1,2,2-tetrafluoroethoxy)phenyl)ethylsulfonamido)benzenesulfonamide] was 420 nM. As for `NS(=O)(=O)c1ccccc1NS(=O)(=O)CCc1ccc(-c2ccc(C(F)(F)F)cc2)cc1` [Example 224, 2-(2-(4′-(trifluoromethyl)biphenyl-4-yl)ethylsulfonamido)benzenesulfonamide], the IC50 came to 100 nM. The value for `NS(=O)(=O)c1ccccc1NS(=O)(=O)/C=C/c1ccccc1O` [Example 225, 2-[2-(2-Hydroxy-phenyl)-ethenesulfonylamino]-benzenesulfonamide] was 6300 nM; that for `NS(=O)(=O)c1ccc(Cl)cc1NS(=O)(=O)CCc1ccc(OC(F)F)cc1` [Example 226, 4-Chloro-2-(2-(4-(difluoromethoxy)phenyl)ethylsulfonamido)benzenesulfonamide] was 1300 nM.

As to `COc1ccccc1CCS(=O)(=O)Nc1cc(Cl)ccc1S(N)(=O)=O` [Example 227, 4-Chloro-2-(2-(2-methoxyphenyl)ethylsulfonamido)benzenesulfonamide], half-maximal inhibition (IC50) required 1900 nM.

In turn, `COc1cc(Cl)ccc1CCS(=O)(=O)Nc1cc(Cl)ccc1S(N)(=O)=O` [Example 228, 4-Chloro-2-(2-(4-chloro-2-methoxyphenyl)ethylsulfonamido)benzenesulfonamide] showed an IC50 of 130 nM.
